These results are taken from article PMC13267113 (npj Drug Discovery, 2025).

One series has as its system CHO-K1 (hamster, ovary). In words: MTT cytotoxicity CHO-K1. To be noted: CHO-K1, 72 h, n = 3. It counts as cell-based. The method, then:
(§1) All cell types were cultivated at 37 °C with 5% CO2. HepG2, HEK293, HCT116, CHO-K1, HeLa-CCL-2 and Huh-7.5 were purchased from ATCC. The respective cell media (Gibco) were supplemented with 10% FBS (Gibco) before usage. Cells were used between passages #5 and #30. To obtain biological repeats, cells were split separately for at least two passages.
(§2) Cells were washed with PBS and 0.5 mL trypsin was added. Afterwards, cells were incubated for 5 min before adding 10 mL medium containing 10% FBS. Per well, 120 µL cell suspension (5 × 10^4 cells/mL) was seeded in transparent 96-well cell bind plates and incubated for 2 h (37 °C, 5% CO2). A dilution series (1:3) of test compounds was prepared in respective media containing 10% FBS and added (60 µL) to the prepared cell plate. Cells were incubated for a further 72 h (37 °C, 5% CO2). Next, 20 µL MTT (5 mg/mL in PBS) was added to each well and incubated for 2 h (37 °C, 5% CO2). The wells were emptied and 100 µL isopropanol/10 N HCl (1000:4) per well was added.
(§3) The plates were analyzed by measuring the absorbance at 570 nm (plate reader Infinite® 200 Pro, Tecan). After normalization of data to the respective solvent controls, the calculated percentage of growth inhibition was plotted using GraphPad Prism software (version 10.0.2).

The next series relates to HeLa (human, cervix). The experiment in a line: MTT cytotoxicity HeLa. It counts as cell-based. To be noted: 72 h, n = 3. As for the experimental part:
as §1, §2, §3

Another series deals with U-2 OS cells. The experiment in a line: Mitochondrial superoxide formation (MitoSOX Red). It counts as cell-based, human. The settings on record: n = 6. The method, then: CYS was tested for its potential to induce oxidative stress in U-2 OS cells. Therefore, 120 µL of a cell suspension in McCoy’s (+10% FBS) containing 5 × 10^4 cells/mL were seeded into black 96-well imaging plate (BD Falcon). The plates were incubated for two days (37 °C, 5% CO2) until the cells reached approximately 70% confluence. Subsequently, the cells were washed with HBSS buffer, prior to adding CYS (20 µM) and the ROS inducer menadione (50 µM) as positive control, along with the staining solution (HBSS, calcium, magnesium, 5 µM MitoSOX red and 10 µg/mL Hoechst (Thermo)). To check for ROS protective properties, menadione (50 µM) was added directly to the staining solution. […] Afterwards, the cells were washed twice with HBSS. The cells were imaged using an automated fluorescence microscope (Celldiscoverer 7, Zeiss) (excitation: […]) to analyze the fluorescence intensity of the superoxide tracker MitoSOX red. The experiment was carried out with six replicates per condition. Quantification was done by high-content image analysis using the ZEN software (version 3.4, blue edition, Zeiss). Data presentation was done using GraphPad Prism (version 10.0.3) with ordinary one-way ANOVA including multiple comparisons to the control group for statistical analysis of the sample without ROS induction via menadione in the staining solution. Multiple unpaired t test was used to compare samples for ROS protective properties, which were incubated with menadione in the staining solution.

In another series the test system is HCT116 (human, colon). The experiment in a line: MTT cytotoxicity HCT116. It counts as cell-based. The settings on record: HCT-116, 72 h, n = 3. The method, then: as §1, §2, §3
The next series deals with Huh-7.5 (human, liver). The experiment in a line: MTT cytotoxicity Huh-7.5. To be noted: Huh7.5, 72 h, n = 3. In kind it is cell-based. As for the experimental part: as §1, §2, §3
The subject of another series is HepG2 (human, liver). In words: MTT cytotoxicity HepG2. It counts as cell-based. To be noted: 72 h, n = 3. The method, then:
as §1, §2, §3

The subject of series [1] is U2OS (human, osteosarcoma). The experiment in a line: MTT cytotoxicity U2OS. In kind it is cell-based. The settings on record: 72 h, n = 3. As for the experimental part:
as §2, §3

A short description of series [2]: Metabolic stability in mouse hepatocytes. In kind it is in vitro ADME. To be noted: mouse, pooled mouse hepatocytes; 1 μM, 0.25 × 10^6 cells/mL; read-out: Mouse Hepatocytes t1/2. The method, then:
For the evaluation of combined phase I and phase II metabolic stability, the compound (1 μM) was incubated with 0.25 × 10^6 cells/mL of pooled mouse hepatocytes (Xenotech, Kansas City, USA). Cells were thawed in Leibovitz’s L-15 medium without phenol red (ThermoFisher Scientific, Waltham, USA). Briefly, cells were transferred into 50 mL of medium, followed by centrifugation at 55 g for 6 min. Supernatant was discarded, and the cell count was determined after gently resuspending the cell pellet in 1mL of medium. Hepatocytes were diluted to 0.5 × 10^6 cells/mL and incubated at 37 °C, 700 rpm for 10 min, to achieve the desired final cell count after addition of an equal volume of test compounds in medium, leading to a final test concentration of 1 µM at 1% DMSO. […] For the determination of metabolism in the presence of cobicistat, this drug was added together with test compounds in the desired concentration range. The metabolic stability of testosterone, verapamil, ketoconazole and 7-hydroxycoumarine were determined in parallel to confirm the enzymatic activity of mouse hepatocytes. […] Concentration of the remaining test compound at the different time points was analyzed by HPLC-MS/MS (Vanquish Flex coupled to a TSQ Altis Plus, Thermo Fisher, Dreieich, Germany) and used to determine half-life (t1/2). Intrinsic clearance was calculated as follows:2 CLintµL/min×10^6cells=Incubation volumeµL×ln(2)/Cells in incubation mixture[10^6]×t1/2
For metabolite identification studies, test compounds were incubated at 10 µM final concentration and samples were analyzed using HPLC-HRMS (Ultimate 3000 coupled to a Q Exactive Focus, Thermo Fisher, Dreieich, Germany). […] Blank samples using DMSO were run in parallel for background subtraction. Sample processing for metabolite identification was performed using Compound Discoverer 3.2 (Thermo Fisher, Dreieich, Germany). Metabolites were identified based on mass shifts and feasibility of the metabolic reaction, also in view of MS peak intensities over time.

The next series concerns E. coli gyrase. The settings on record: cited from earlier work.
Another series has as its system HEK293 (human, kidney). In words: MTT cytotoxicity HEK293. It counts as cell-based. As for the experimental part:
as §1, §2, §3

Series [3] has as its system CHO-K1 cells.
Source text: (§12) Subsequently, cells were washed three times with PBS and imaged using Celldiscoverer 7 (Zeiss).
Series [4] concerns zebrafish embryos [Tg(fabp10a:DsRed; elaA:EGFP)]. In words: In vivo hepatotoxicity in zebrafish embryos. To be noted: soaking 3 to 5 dpf; valproic acid 20, 40 µg/mL. As for the experimental part: (§4) Handling of adult zebrafish and experiments with zebrafish embryos were performed in accordance with the EU directive 2010/63/EU and the German Animal Welfare Act (§11 Abs. 1 TierSchG). An automatic aquatic eco-system (PENTAIR, Apoka, UK) was used for zebrafish housing. Adult zebrafish were mated pairwise in our zebrafish facility after one night in the mating cages (light/dark cycle: 14 h/10 h). The eggs were collected after 2 h of mating and placed in a petri dish with fish water (pH 7.36 ± 0.08, conductivity: 800 ± 50 µs). The eggs were washed with 0.3x Danieau´s medium (17 mM NaCl, 0.2 mM KCl, 0.12 mM MgSO4, 0.18 mM Ca(NO3)2, 1.5 mM HEPES, pH 7.1–7.3, and 1.2 µM methylene blue). 300 eggs were placed per Petri dish and stored in the incubator at 28 °C overnight. […]
Zebrafish embryos [Tg(fabp10a:DsRed; elaA:EGFP)] were prepared as described above. […] After 48 h treatment, the embryos were checked via a fluorescence stereomicroscope (M205 FA, Leica) with attention to liver degeneration. Fluorescence images were taken after anesthetizing the embryos with tricaine (40 µg/mL) and placing them laterally (excitation: 558 nm, emission 583 nm, 35× magnification). […] The liver size was calculated using ImageJ software (format: 8 bit, threshold: 40–255, binary, particle size: 10.0-infinite). […] The relative liver sizes of treated embryos were calculated accordingly and normalized to the control group. […]

In series [5] the test system is CHO-K1 cells. In words: Micronucleus test. The settings on record: 24 h; mitomycin C 0.05 µM, doxorubicin 0.05 µM, etoposide 0.25 µM; CYS 20 µM, 100 µM for Cysto-180.
Source text: as §12
For a further series, the system named is zebrafish embryos. The experiment in a line: In vivo cardiotoxicity in zebrafish embryos. The settings on record: treated 2 to 3 dpf; CYS 20 µM; terfenadine 10, 20 µM. As for the experimental part:
as §4, with “overnight. 24 h post-mating, the unfertilized eggs were discarded. The 0.3x Danieau´s media in the petri dishes was replaced every 24 h and embryos with developmental issues were euthanized using ice water.” for “overnight.”
Embryos were prepared as described above. […] Afterwards, embryos were anesthetized with tricaine added to the media (40 µg/mL, 0.004% (w/v)) and videos were recorded using a stereomicroscope (1.25 × magnification) (Stemi 508, Zeiss) with Media Recorder (version 4.0) and analyzed via DanioScope software (version 1.2.208, Noldus). […]

Read-outs that look alike come from different tables or passages of the source.

As for `CC(C)Oc1c(NC(=O)c2ccc(NC(=O)[C@H](CC(N)=O)NC(=O)c3ccc(NC(=O)c4ccc(C#N)cc4)cc3)cc2)ccc(C(=O)Nc2ccc(C(=O)O)cc2)c1O` [CN-DM-861], the 50% inhibitory concentration (IC50) in the series on CHO-K1 (hamster, ovary) is over 20000 nM; in the series with HeLa (human, cervix), over 37000 nM; with HCT116 (human, colon), over 20000 nM; in the series on Huh-7.5 (human, liver), over 20000 nM; with HepG2 (human, liver) it was over 20000 nM; in [1], over 20000 nM. Moreover, the IC50 is […] with E. coli gyrase and over 20000 nM with HEK293 (human, kidney) (HEK293, 72 h, read-out: IC50 HEK293 (human, kidney)). Further, the “basal superoxide radical levels vs DMSO control” value with U-2 OS cells (20 µM, MitoSOX Red, no menadione) is recorded as “no ROS induction at the maximum soluble concentration”. Besides, in the series on U-2 OS cells (CYS 20 µM + menadione 50 µM), the “menadione-induced superoxide formation on co-treatment” value is given as “no significant increase of superoxide”. Moreover, in series [2], the half-life at 1 µM was found to be 1.57 ± 0.25 h.

Take `COc1cccc2c1C(=O)c1c(O)c3c(c(O)c1C2=O)C[C@@](O)(C(=O)CO)C[C@@H]3O[C@H]1C[C@H](N)[C@H](O)[C@H](C)O1` [Doxorubicin, doxorubicin, reference compound]: the half-inhibitory concentration (IC50) with CHO-K1 (hamster, ovary) was 100 ± 10 nM; in the series with HCT116 (human, colon) it was 240 ± 20 nM; in the series with HepG2 (human, liver), 480 ± 130 nM; with HEK293 (human, kidney) (HEK293, MTT, 72 h, n = 3, read-out: IC50 HEK293 (human, kidney)) it was 160 ± 40 nM. For the same compound, the micronuclei/nuclear bud formation result in the series on CHO-K1 cells [3] is given as “high amount of nuclear bud/micronuclei formation”.

With `CCCC(CCC)C(=O)O` [Valproic acid, valproic acid], the liver size entry in series [4] is on record as “significant liver size reduction”.

Turning to `CO[C@@]12[C@H](COC(N)=O)C3=C(C(=O)C(C)=C(N)C3=O)N1C[C@@H]1N[C@@H]12` [mitomycin C], the micronuclei/nuclear bud formation result in the series with CHO-K1 cells [5] is “high amount of nuclear bud/micronuclei formation”.

For `CC(C)(C)c1ccc(C(O)CCCN2CCC(C(O)(c3ccccc3)c3ccccc3)CC2)cc1` (centres unmarked) [terfenadine], in the series with zebrafish embryos, the heartbeat rate result was “significant and concentration-dependent decrease of beats per minute”; the pericardial area entry is given as “significant, concentration-dependent increase in pericardial area”.
